Laboratory results reported in patent US11040053B2, “Compositions and methods for activating “stimulator of interferon gene”13 dependent signalling” (CHINOOK THERAPEUTICS, INC., priority 2015, dated 2021).
Entries after “also recorded” stand apart in the source; their conditions may differ.

Legend:
hSTING(REF) [1] = biological target: T1, hSTING(REF) (Homo sapiens, UniProt Q86WV6); test: IFN-β luciferase reporter in HEK293T cells stably expressing hSTING(REF), digitonin permeabilization; conditions: FIGS. 6A-B, 0.1 μM to 100 μM and 6.25 μM CDN
Target sequence in this assay (Q86WV6 whole entry, the tested form may be a part): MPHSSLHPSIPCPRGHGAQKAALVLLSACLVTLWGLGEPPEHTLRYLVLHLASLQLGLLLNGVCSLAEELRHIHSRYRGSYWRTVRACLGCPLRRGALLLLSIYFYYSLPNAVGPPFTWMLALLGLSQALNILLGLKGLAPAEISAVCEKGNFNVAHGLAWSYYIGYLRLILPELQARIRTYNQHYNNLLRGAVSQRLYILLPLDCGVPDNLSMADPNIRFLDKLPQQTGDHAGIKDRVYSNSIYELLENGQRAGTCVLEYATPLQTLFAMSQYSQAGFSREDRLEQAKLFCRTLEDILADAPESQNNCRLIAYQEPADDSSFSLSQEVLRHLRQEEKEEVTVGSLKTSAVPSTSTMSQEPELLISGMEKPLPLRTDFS
Protocol: 24 hours later, cells were stimulated with native and synthetic CDN derivative molecules using digitonin permeabilization to ensure uniform uptake.
After 20 min, the stimulation mixtures were removed and 200 ul of DMEM media supplemented with 10% (vol/vol) fetal bovine serum, 1% L-Glutamine, and 1% Penicillin/Streptomycin was added. Cells were incubated an additional 6 hours (37° C., 5% CO2) and then cell lysates were prepared and reporter gene activity measured on a Spectramax M3 luminometer using the Dual-Glo Luciferase Assay System (Promega, catalog #E2920) as described by the manufacturer. IFNβ firefly luciferase reporter gene activity was normalized to TK renilla luciferase gene activity and plotted as fold induction over activity in unstimulated cells (mean+/−s.e.m.).

hSTING(WT) = hSTING(WT) (Homo sapiens, UniProt Q86WV6, H232R); test: Differential scanning fluorometry (DSF) binding to purified hSTING WT; parameters: DNA encoding amino acids 140-379 (amino acid numbering corresponding to Swiss Prot Q86WV6); 6xHIS (N, cleaved yes); SUMO (N, cleaved yes); made in house; host or cells: Rosetta2 (DE3) E. coli; conditions: for hSTING Tm Shift WT: DSF, 1 mg/ml STING AA140-379, ligand 1 mM; for binding relative to OH reference compound, in words: Table 4 comment, wild type hSTING
Protocol: (§1) Cells were grown in lysogeny broth at 37° C. until a […] absorbance of 0.6 was reached. […] Cell pellets were re-suspended on ice in a buffer containing 50 mM Tris hydrochloride (Tris-HCl) pH 7.5, 500 mM sodium chloride (NaCl), 20 mM imidazole, 10% glycerol, 1 mM tris(2-carboxyethyl)phosphine hydrochloride (TCEP) and protease inhibitor tablet (Pierce) (Buffer A). Cells were lysed using an S-450D sonifier (Emmerson industrial) on ice. […] Protein was aliquoted, flash frozen in liquid nitrogen and stored at −80° C. until use.
(§2) The protein is heated in the presence of a dye that binds to and fluoresces in hydrophobic environments. The protein is thermally denatured by heating resulting in increased dye binding to the unfolded protein and fluorescence. The temperature midpoint (Tm) of a proteins denaturation is established by calculating the half maximal value of the denaturation curve. The temperature midpoint of the protein in the presence of a ligand is directly related to the affinity of the ligand for the protein and therefore its ability to stabilize the protein at higher temperatures.
(§3) Samples were placed in hard shell PCR plate (Bio-Rad). The fluorescence as a function of temperature was recorded in a CFX 96 real time PCR machine (Bio-Rad) reading on the HEX channel, excitation 450-490, emission 560-580 nm. The temperature gradient was from 15-80° C. ramping 0.5° C. per 15 seconds and recording every 0.5° C. After subtraction of the background signal from a sample lacking protein and ligand. The midpoint temperature (Tm) was calculated by fitting the curves of the fluorescence as a function of temperature to a Boltzmann sigmoidal function (Graph Pad Prism).

[2] = biological target: T2, wild type (WT) STING allele (Homo sapiens, UniProt Q86WV6, H232R); test: Cytokine transcript induction (qRT-PCR) in STING^WT/WT hPBMCs; type: cell-based; conditions: FIGS. 7A-B, 2 hours stimulation, 100 μM to 0.1 μM
T2 construct: one donor was homozygous for the wild type (WT) STING allele; endogenous in cells; host or cells: human PBMCs, donor STING WT/WT
Protocol: (§4) The induction of type I interferon was measured in human primary blood mononuclear cells (hPBMCs) to evaluate the potency of mono- or di-F-CDN compounds as described herein. hPBMCs from two unique donors were used: one donor was homozygous for the wild type (WT) STING allele (STING^WT/WT) and the other donor was homozygous for the so-called reference (REF) STING allele (STING^REF/REF). The STING genotype of these donors was determined by PCR amplification and sequencing: genomic DNA was isolated from 10^4 hPBMCs using Quick Extract DNA Extraction Solution (Epicentre) and was used to amplify regions of exon 3, 6, and 7 of the human STING gene.
(§5) Cells were incubated at 37° C., 5% CO2 with concentrations ranging from 100 μM to 0.1 μM of each CDN. After 2 hours (FIGS. 7 and 8) or 2 hours and 6 hours (FIGS. 9-13) stimulation, cells were harvested by centrifugation and washed once with phosphate-buffered saline. Cellular RNA was isolated using the Aurum Total RNA 96 Kit and cDNA was synthesized using the iScript cDNA Synthesis Kit. Target and reference gene expression was assessed by real-time qRT-PCR using PrimePCR probe assays and the CFX96 gene cycler (all reagents and equipment from BioRad). Normalized IFNβ expression was expressed relative to untreated cells. Target genes included type I interferon (IFNβ), Th1-associated cytokines (IFNγ, IL-12p40) and NF-kB dependent inflammatory cytokines (TNFα, IL-6). Reference genes included GUSB alone (FIGS. 7 and 8) or GUSB and HSP90AB1 (FIGS. 9-13).

[3] = biological target: T3, reference (REF) STING allele (Homo sapiens, UniProt Q86WV6); test: Cytokine transcript induction (qRT-PCR) in STING^REF/REF hPBMCs; type: cell-based; conditions: for cytokine responses (IFNβ, TNFα, IL-6, IFNγ, IL-12p40 expression), in words: FIGS. 9B-13B, 2 hours and 6 hours stimulation
T3 construct: endogenous in cells
Protocol: as §4, §5

hSTING(REF) [4] = biological target: T1, hSTING(REF); test: Differential scanning fluorometry (DSF) binding to purified hSTING REF allele; parameters: DNA encoding amino acids 140-379 (amino acid numbering corresponding to Swiss Prot Q86WV6); 6xHIS (N, cleaved yes); SUMO (N, cleaved yes); made in house; host or cells: Rosetta2 (DE3) E. coli; conditions: for hSTING Tm Shift REF: DSF, 1 mg/ml STING AA140-379, ligand 1 mM; for binding relative to OH reference compound, in words: Table 4 comment, REF allele hSTING
Protocol: as §1, §2, §3
Target sequence in this assay (Q86WV6 140-379): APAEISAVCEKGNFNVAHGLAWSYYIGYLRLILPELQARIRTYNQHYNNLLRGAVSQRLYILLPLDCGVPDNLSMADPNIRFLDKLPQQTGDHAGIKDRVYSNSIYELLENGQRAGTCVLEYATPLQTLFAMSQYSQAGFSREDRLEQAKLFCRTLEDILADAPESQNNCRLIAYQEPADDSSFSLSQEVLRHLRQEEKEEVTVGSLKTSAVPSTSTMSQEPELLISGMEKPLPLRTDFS

HAQ allele hSTING = biological target: T4, HAQ allele hSTING (Homo sapiens, UniProt Q86WV6, G230A/H232R/R293Q); test: Differential scanning fluorometry (DSF) binding to purified hSTING HAQ allele; conditions: for hSTING Tm Shift HAQ: DSF, 1 mg/ml STING AA140-379, ligand 1 mM; for binding relative to OH reference compound, in words: Table 4 comment, HAQ allele hSTING
T4 construct: DNA encoding amino acids 140-379 (amino acid numbering corresponding to Swiss Prot Q86WV6); 6xHIS (N, cleaved yes); SUMO (N, cleaved yes); made in house; host or cells: Rosetta2 (DE3) E. coli
Protocol: as §1, §2, §3

hSTING HAQ allele = biological target: T5, hSTING HAQ allele (Homo sapiens, UniProt Q86WV6, G230A/H232R/R293Q/R71H); test: IRF-3 inducible secreted luciferase reporter in THP1-Dual cells without digitonin; type: cell-based; conditions: for EC50: without digitonin in THP1 cells (HAQ allele); for activity relative to OH reference compound, in words: Table 5 comment, THP1 cells without digitonin
T5 construct: a human monocyte cell line containing the hSTING HAQ allele; host or cells: THP1-Dual cells
Protocol: After 30 minutes, cells were washed and fresh RPMI media containing 10% FBS was added, and cells were incubated at 37° C. with 5% CO2 Cell culture supernatants from each sample were collected after overnight incubation, and 10 μL of the cell culture supernatants was added to 50 μL QUANTI-Luc reagent (Invivogen). Type I interferon activation was determined by measuring secreted luciferase levels on a SpectraMax M3 spectrophotometer (Molecular Devices). The EC50 value was determined from the dose-response curve for the 10 concentrations from the serial dilution of the reference compounds and compounds of the invention tested in this assay as listed in Table 5.

B16.SIY cells = test: B16.SIY melanoma mouse model, intra-tumoral injection; type: in vivo, C57BL/6 mice; conditions: FIG. 14B, 5 μg IT, day 7 post-IT injection, vs HBSS control
Protocol: To determine whether the derivative molecules elicit anti-tumor immunity, 6-8 week old female C57BL/6 mice (8 mice per group) were implanted with B16.SIY cells (5×10^5 cells in 100 μL PBS). Mice were treated with reference compound 3′3′-RR-(A)(A) and di-F compound 3′3′-RR-(2′F-A)(2′F-A) (5, 50, 100 μg in a total volume of 40 μL HBSS), or HBSS vehicle control. Treatments began when tumors reached a volume of approximately 100 mm^3, on day 9 post tumor implantation. The CDN compounds were administered by […] injection into the center of the tumor (IT) using a 27 gauge needle. Mice were bled on day 16 post tumor implantation and PBMCs were isolated by Ficoll gradient (Miltenyi Biotech). 1×10^5 PBMCs were pre-incubated with anti-CD16/32 monoclonal antibody to block potential nonspecific binding, and labeled with PE-MHC class I pentamer (Proimmune) consisting of murine H-2Kb complexed to […] (SIY, SEQ ID NO: 16) peptide, anti-TCRβ-AF700 (H57-597), anti-CD8-Pacific Blue (53-6.7), anti-CD4-Pacific Orange (RM4-5) (all antibodies from BioLegend) and the Fixable Viability Dye eFluor 450 (eBioscience). Stained cells were analyzed using FACS Versa cytometer with FACSDiva software (BD). Data analysis was conducted with FlowJo software (Tree Star).

[5] = biological target: T6, human-STING(E149-S379)H232R protein (Homo sapiens, UniProt Q86WV6, H232R); test: Surface Plasmon Resonance binding to hSTING WT; conditions: Biacore T200, 15° C., steady-state analysis
T6 construct: His6 (C); made in house; host or cells: E. coli
Protocol: Binding of the mono- and di-F CDN compounds was assessed using Surface Plasmon Resononce to determine a binding constant. An E. coli expression construct (human-STING[E149-S379]H232R) was prepared harboring the protein sequence:
Aliquots were prepared and stored at −80° C. in 30 mM Tris pH 7.5/100 mM NaCl/10% glycerol.
N-terminal avi-tagged human-STING(E149-S379)H232R protein was immobilized (2500 RUs) on a streptavidin chip at 15° C. in a Biacore T200 (GE Healthcare). Titrations of cyclic dinucleotides (CDNs as indicated in Table 6) in 30 mM Tris pH 7.5/50 mM NaCL/0.005% Tween 20/1 mM DTT/2% DMSO, were profiled (30 μLs/min, 180 seconds for sample contact/120 seconds for dissociation) against hSTING at 15° C. Kinetic analysis of the data was performed using Biacore T200 Evaluation software. Steady-state analysis of the data was performed using Graphpad Prism 6.0 software, using one site-specific binding algorithm (Equation is Y=Bmax*X/(Kd+X)).

Sequence of hSTING(WT) (Q86WV6 140-379 H232R): as the sequence (Q86WV6 140-379) above, with H93R counted along it
T5 sequence (Q86WV6 whole entry R71H/G230A/H232R/R293Q): as the sequence (Q86WV6 whole entry, the tested form may be a part) above, with R71H, G230A, H232R, R293Q counted along it
T6 sequence (Q86WV6 with tags, fused parts or gaps H232R): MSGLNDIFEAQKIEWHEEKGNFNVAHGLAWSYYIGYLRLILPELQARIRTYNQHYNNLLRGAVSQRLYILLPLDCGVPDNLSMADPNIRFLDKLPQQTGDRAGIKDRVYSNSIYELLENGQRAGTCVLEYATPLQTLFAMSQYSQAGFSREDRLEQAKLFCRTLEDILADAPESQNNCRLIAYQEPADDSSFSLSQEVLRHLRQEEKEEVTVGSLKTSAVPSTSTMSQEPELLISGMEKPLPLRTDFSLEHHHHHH
T4 sequence (Q86WV6 140-379 G230A/H232R/R293Q limits assumed): as the sequence (Q86WV6 140-379) above, with G91A, H93R, R154Q counted along it
T3 sequence (Q86WV6 whole entry): as the sequence (Q86WV6 whole entry, the tested form may be a part) above
T2 sequence (Q86WV6 whole entry H232R): as the sequence (Q86WV6 whole entry, the tested form may be a part) above, with H232R counted along it

| IFNβ luciferase reporter induction by hSTING(REF), in words (hSTING(REF) [1]) | hSTING Tm Shift WT (hSTING(WT)) [°C] | hSTING Tm Shift REF (hSTING(REF) [4]) [°C] | hSTING Tm Shift HAQ (HAQ allele hSTING) [°C] | EC50 (hSTING HAQ allele) [µM] | Kd [5] [µM] | binding relative to OH reference compound, in words (hSTING(WT)) | binding relative to OH reference compound, in words (hSTING(REF) [4]) | binding relative to OH reference compound, in words (HAQ allele hSTING) | activity relative to OH reference compound, in words (hSTING HAQ allele) | Compound | relative normalized IFNβ expression, in words [2] | relative normalized IFNβ expression, in words ([3]; FIGS. 8A-B, 2 hours stimulation, 100 μM to 0.1 μM) | percent of SIY-specific CD8+ T cells in PBMCs, in words (B16.SIY cells) | cytokine responses (IFNβ, TNFα, IL-6, IFNγ, IL-12p40 expression), in words [3] |
| --- | --- | --- | --- | --- | --- | --- | --- | --- | --- | --- | --- | --- | --- | --- |
| responded poorly | 9.6 | 5.7 | 15.5 | 25 | – | – | – | – | – | Nc1ncnc2c1ncn2[C@@H]1O[C@@H]2CO[P@@](=O)(S)O[C@H]3[C@@H](O)[C@H](n4cnc5c(N)ncnc54)O[C@@H]3CO[P@@](=O)(S)O[C@H]2[C@H]1O [3'3'-RR-(A)(A), reference compound] | induced similar levels of IFNβ; also recorded: induced higher levels of IFNβ transcript when compared to the 3′3′-(A)(A) compound | did not stimulate production of appreciable IFNβ transcript levels | elicited significantly SIY-specific CD8^+ T cells | – |
| – | 9.4 | 5.4 | 16.0 | 59 | 1.28 | – | – | – | – | Nc1ncnc2c1ncn2[C@@H]1O[C@@H]2CO[P@@](=O)(S)O[C@H]3[C@@H](F)[C@H](n4cnc5c(N)ncnc54)O[C@@H]3CO[P@@](=O)(S)O[C@H]2[C@H]1O [Compound 22, (2R,3R,3aR,5R,7aR,9R,10R,10aS,12R,14aR)-2,9-bis(6-amino-9H-purin-9-yl)-3-fluoro-10-hydroxy-5,12-dimercaptooctahydro-2H,7H-difuro[3,2-d:3′,2′-j][1,3,7,9]tetraoxa[2,8]diphosphacyclododecine 5,12-dioxide] | – | – | – | able to elicit cytokine responses at 6 hours stimulation with 100 μM of compound |
| – | 14.7 | 9.5 | 25.9 | 15 | 0.311 | improved binding | improved binding | improved binding | improved activity | Nc1nc2c(ncn2[C@@H]2O[C@@H]3CO[P@@](=O)(S)O[C@H]4[C@@H](O)[C@H](n5cnc6c(N)ncnc65)O[C@@H]4CO[P@@](=O)(S)O[C@H]3[C@H]2F)c(=O)[nH]1 [Compound 23, 2-amino-9-((2R,3R,3aR,5R,7aR,9R,10R,10aS,12R,14aR)-9-(6-amino-9H-purin-9-yl)-3-fluoro-10-hydroxy-5,12-dimercapto-5,12-dioxidooctahydro-2H,7H-difuro[3,2-d:3′,2′-j][1,3,7,9]tetraoxa[2,8]diphosphacyclododecin-2-yl)-1,9-dihydro-6H-purin-6-one] | – | – | – | induced more robust dose-dependent responses of each of the cytokines tested |
| – | 15.9 | 9.7 | 28.8 | 13 | 0.037 | improved binding | improved binding | improved binding | improved activity | Nc1nc2c(ncn2[C@@H]2O[C@@H]3CO[P@@](=O)(S)O[C@H]4[C@@H](F)[C@H](n5cnc6c(N)ncnc65)O[C@@H]4CO[P@@](=O)(S)O[C@H]3[C@H]2O)c(=O)[nH]1 [Compound 24, 2-amino-9-((2R,3R,3aS,5R,7aR,9R,10R,10aR,12R,14aR)-9-(6-amino-9H-purin-9-yl)-10-fluoro-3-hydroxy-5,12-dimercapto-5,12-dioxidooctahydro-2H,7H-difuro[3,2-d:3′,2′-j][1,3,7,9]tetraoxa[2,8]diphosphacyclododecin-2-yl)-1,9-dihydro-6H-purin-6-one] | – | – | – | induced more robust dose-dependent responses of each of the cytokines tested |
